Earlier results in patent US20130150444A1, “MODIFIED RELEASE COMPOSITIONS OF MAGNESIUM VALPROATE” (CADILA HEALTHCARE LIMITED, priority 2011, published 2013).

Details: in comparison with sodium valproate or valproic acid

In the case of “magnesium 2-propylvalerate [magnesium valproate]”, the absorption rate is listed as “slower and more regular”.
